Laboratory results reported in patent US8859615B2, “Compounds, compositions and methods for reducing toxicity and treating or preventing diseases” (priority 2008, dated 2014).
Read-outs that look alike come from different tables or passages of the source.

Key:
[1] = test system: human PMBC lymphocytes; assay: Time course of effects on proliferation of human lymphocytes (XTT and CCK-8; Table 6); format: cell-based; details: Lymphocyte, read-out: Dm
Protocol: Absorbance was measured by Powerwave a XS microplate spectrophotometer.
The effect of compounds of the invention on the proliferation of human lymphocytes at different time points are shown in Table 6 as results of XTT and CCK-8 tetrazolium assays following 24-hour, 72-hour, and 120-hour incubation. […] Cultured human PMBC lymphocytes were used in the assay. The procedures employed are taught in the General Biological Methods section.

[2] = test system: human colon carcinoma HCT-116 xenografts; assay: Compound D with Iso-Oxazole-Fludelone or Isodehydelone in nude mice bearing HCT-116 xenografts
[3] = test system: CD-1 mouse splenocytes; assay: Splenocyte stimulation: [3H]dThd incorporation into DNA (Table 7, FIGS. 10, 11); format: cell-based; details: for proliferative activity life-span of normal mouse splenocytes in vitro: FIGS. 10 and 11; for stimulation of DNA synthesis ([3H] thymidine uptake) by mouse splenocytes / Incorporation of [3H]dThd into Mouse Splenocyte DNA (cpm): Table 7; for Incorporation of [3H]dThd into Mouse Splenocyte DNA (cpm): control 224 ± 28
Description: FIG. 10 show controls and the effects of different concentrations of compounds of the invention, at different time points, on the proliferation of cultured mouse splenocytes as measured by DNA synthesis through incorporation of radiolabeled thymidine into the cells' DNA.
FIG. 11 show controls and the effects of different concentrations of compounds of the invention, at different time points, on the proliferation of cultured mouse splenocytes as measured by DNA synthesis through incorporation of radiolabeled thymidine into the DNA.
Splenocytes were prepared from CD mice as a single cell suspension, and treated with red blood cell (RBC) lysis buffer (as described at http://www.ebioscience.com/ebioscience/specs/antibody—00/00-4333.htm) to remove RBCs. In a typical experiment, splenocyte stimulations by […] (PHA), panaxytriol (PXT) or Compound D were measured by using tritium-labeled thymidine, ^3H-dThd, as a tracer for DNA synthesis. DNA synthesis correlates with cell proliferation. The incubation mixture consisted of splenocyte suspension in RPMI 1640 medium (1.56×10^6 cells in 198.5 μl)+3 μg of PHA in 1 μl+ the test compound at various concentrations in 0.5 μl in dimethyl sulfoxide (DMSO), to a final concentration of 200 μl per microplate well. DMSO alone was used in place of the compound in DMSO as a control. The incubation was carried out in 5% CO2-humidified atmosphere at 37° C. for a designated time [e.g., 24 hr, 48 hr, 72 hr, 96 hr]. At the end of the incubation period, ^3H-dThd 1 μCi in 1 μl was added for an additional 6 hr incubation. The reaction was stopped by adding one volume of 20% trichloroacetic acid (TCA), homogenized at 3° C. and washed with 20% TCA. The precipitate was heat extracted (90°) with 10% TCA for 15 minutes to obtain the DNA fraction, which has the radiolabel incorporated, in the supernatant. The supernatant was added to a 7-fold volume of Liquicint for scintillation counting, which was accomplished with a Beckman LS 6000 IC spectrometer from Beckman Coulter Co. The incorporation of [^3H]dThd into DNA of splenocytes were measured as described above or previously (Chou et al. Phytotherap. Res. 3: 237-242, 1989). The results are depicted in FIGS. 11 and 12.
For the cell-counting assays, the cells were washed with RPMI 1640 medium and followed by centrifugation. The cell number was counted with a hemocytometer. Splenocyte suspensions (0.4×10^6 cells in 0.2 ml) in flat bottom 96-well plates were incubated with [^3H]dThd (1 μCi) for 24-hrs in the absence or presence of […] (PHA, 0.1 μg/0.2 ml) or panaxytriol (0.03-1 μM). Studies indicate that maximal stimulation occurred at 48 hrs or 72 hrs. The procedure in Table 7 was used to test the splenocytes used in the assays described herein to test the compounds of the invention, shown by PHA stimulation of DNA synthesis. […] Splenocytes from this culture were used in the assays in FIGS. 11 and 12 and the corresponding Examples.

[4] = test system: human PBMC lymphocytes; assay: DNA synthesis ([3H]thymidine incorporation) in human PBMC lymphocytes (FIG. 8); format: cell-based; details: for maximal human lymphocyte stimulation concentration: at 120 hrs, FIG. 8B, C, D
Description: FIG. 8 show the effects of PHA and different concentrations of compounds of the invention, at different time points, on the proliferation of a culture of human lymphocytes as measured by DNA synthesis through incorporation of radiolabeled thymidine into the DNA.
The main principle and method of experiments for human PBMC lymphocytes and for mouse splenocytes stimulations were the same, since both measure immunological cell stimulation by PHA, PXT and compounds of the invention. Both the lymphocyte and the splenocyte assays measure the ^3H-dThd tracer as an indication of DNA synthesis. For PBMC lymphocytes (FIGS. 9A-9G), the experimental methods are those for splenocytes disclosed in Example 24 (FIGS. 11A-11F; FIGS. 12A-12E), except 0.282×10^6 PBMC lymphocyte cells in 198.5 μl was used, and the experimental incubation time was extended to 120 hr.
Briefly, to generate the data in Tables 8A and 8B, the compounds were tested in a [^3H] thymidine uptake experiment using PBMC human lymphocytes obtained from the New York Blood Center. PBMC human lymphocytes were exposed to compounds at 0.03, 0.1, 0.3, and 1.0 μM for 24 hours, and examined for increased [^3H] thymidine uptake. Human lymphocytes were also exposed to compounds for an extended time, e.g., 48 hrs and 72 hrs, instead of 24 hrs, in the [^3H] thymidine uptake assay, and examined to determine the extent of increased [^3H] thymidine uptake to determine if extended exposure will further increase the immune-enhancing effects of the compounds. Increased [^3H] thymidine uptake is interpreted as increased DNA synthesis, which indicates cell growth and division. In the case of immune system cells, this should result in an immune-enhancing effect. The compounds are compared by their IC50 values and/or their effect on [^3H] thymidine uptake at a given concentration and/or time point.

[5] = test system: human mammary carcinoma MX-1 xenografts; details: 5FU 50 mg/kg i.v. QD×5

Compound | EC50 ([1]; 24 hr incubation) | EC50 ([1]; 72 hr incubation) | EC50 ([1]; 120 hr incubation) | effect on tumor size and body-weight ([2]; 10 mg/kg, Q3D×3, Q6D×3, i.v., FIGS. 4A-C) | effect of oral administration on toxicity of isodehydelone ([2]; FIG. 15, Compound (D) orally) | effect on therapeutic effect of Iso-oxazole-fludelone ([2]; FIGS. 4A, 4B) | proliferative activity life-span of normal mouse splenocytes in vitro [3] | time of maximal stimulation of lymphocyte [4] | potency relative to panaxytriol (concentrations for lymphocyte or splenocyte maximal activation) ([4]; FIGS. 8, 9, 10, 11) | maximal human lymphocyte stimulation concentration [4] | effect of co-treatment on acute body-weight decrease due to 5FU [5] | effect of co-treatment on therapeutic effect of 5FU [5] | stimulation of DNA synthesis ([3H] thymidine uptake) by mouse splenocytes [3] | Incorporation of [3H]dThd into Mouse Splenocyte DNA (cpm) ([3]; 0.03 μM) | Incorporation of [3H]dThd into Mouse Splenocyte DNA (cpm) ([3]; 0.1 μM) | Incorporation of [3H]dThd into Mouse Splenocyte DNA (cpm) ([3]; 0.3 μM) | Incorporation of [3H]dThd into Mouse Splenocyte DNA (cpm) ([3]; 1.0 μM) | stimulation of DNA synthesis ([3H] thymidine uptake) by mouse splenocytes ([3]; listed as Panaxytriol)
C=C[C@H](O)C#CC#CC[C@H]1OC(C)(C)O[C@@H]1CCCCCCC [Compound (D)] | 1.07 µM | 1.52 µM | 1.76 µM | reduced the tumor size and increased the subject body-weight | reduces the toxicity and lethality of isodehydelone alone | significantly enhances the therapeutic effect of Iso-oxazole-fludelone | prolonged | 120 h | ≥ 10 fold | 0.3 µM | did not significantly reduce | not significantly increased |  |  |  |  |  | 
C=C[C@@H](O)C#CC#CC[C@@H](O)[C@H](O)CCCCCCC [panaxytriol] | 1.64 µM | 3.48 µM | 3.17 µM |  |  |  | prolonged |  |  | 3 µM |  |  | induced stimulation of DNA synthesis | 227 ± 8.3 cpm | 251 ± 18 cpm | 290 ± 20 cpm | 296 ± 9 cpm | enhance [^3H] thymidine uptake into splenic cells in a dose-dependent manner
